The results in this text go back to PMC12040169 (PLOS Biology, 2025).

In general, viability refers to a read-out of living cells in per cent, often relative to untreated cells.

Molecules are shown by their SMILES.

The first data set can be described thus: in vitro. Conditions: human, hela cells, % viability.
With `Cc1cc(S(=O)(=O)NCCCn2ccnc2)c(C)cc1Br` [CBK269525], the viability at 28.5 h, 10 µM worked out at 91.8%.

On to `CCCNc1nccnc1-c1cccc(Cl)c1Cl` [CBK088892], for which the viability at 28.5 h, 10 µM was 93.8%.

For `Brc1ccc(OCc2ccccc2)c(CNCc2ccccn2)c1` [CBK268340C], the viability at 28.5 h, 10 µM came out at 99.9%.

Consider `CCOC(=O)c1cnc2c(C)c(Cl)ccc2c1NCCCN1CCOCC1` [CBK265296], for which the viability at 28.5 h, 10 µM turned out to be 99.6%.

Regarding `C[C@H](c1ccccc1)n1c(=O)[nH]c2ncc(-c3cccc(-c4ccccc4)c3)nc21` [CBK064158], the viability at 28.5 h, 10 µM amounted to 96.5%.

On to `CCN1CC2(CCCN(Cc3cncn3C3CCCCC3)C2)CCC1=O` (stereo not drawn) [CBK307223], for which the viability at 28.5 h, 10 µM stood at 98.1%.

On to `O=C(Cn1c(-c2cccs2)n[nH]c1=S)N1CCC(c2nc3cc(Cl)ccc3o2)CC1` [CBK297765], for which the viability at 28.5 h, 10 µM is 95%.

On to `Cc1c(Cc2ccccc2)sc(NC(=O)c2cccnc2)c1C(N)=O` [CBK269851], for which the viability at 28.5 h, 10 µM came out at 101%.

As to `CN(C)c1cccc(Nc2cc(-c3ccc(CCC(=O)O)cc3)ncn2)c1` [CBK091010], the viability at 28.5 h, 10 µM came out at 93.1%.

Regarding `CCc1ccc(-n2nc3ccc(NC(=S)NC(=O)c4cc5ccccc5o4)cc3n2)cc1` [CBK264258], the viability at 28.5 h, 10 µM is 101%.

For the compound `CN1CCN(c2cc3c(cc2F)c(=O)c(C(=O)O)cn3-c2ccc(F)cc2)CC1` [CBK287138], the viability at 28.5 h, 10 µM worked out at 78.4%.

In the case of `CC(C)Nc1nc2ccccc2nc1OCCC#N` [CBK115735], the viability at 28.5 h, 10 µM turned out to be 103%.

In the case of `Cc1cc(C)c(S(=O)(=O)Nc2nnc(C(C)C)s2)c(C)c1` [CBK045516], the viability at 28.5 h, 10 µM was found to be 102%.

`NC(=O)CSc1nnc(NC(=O)c2ccccc2Cl)s1` [CBK287629]: the viability at 28.5 h, 10 µM is 89.9%.

As for `O=C(NCc1ccc2c(c1)OCO2)c1ccc(Oc2ccccc2)cc1` [CBK293982], the viability at 28.5 h, 10 µM turned out to be 91.4%.

Regarding `CCCn1ncc(C(=O)N2CCN(CC3CCCN(C)C3)CC2)c1C` (stereo not drawn) [CBK307122], the viability at 28.5 h, 10 µM stood at 89.1%.

For the compound `COc1ccc(CCN2CCN(c3nccnc3OCC3COc4ccccc4O3)CC2)cc1OC` (stereo not drawn) [CBK082808T], the viability at 28.5 h, 10 µM was 104%.

On to `O=C(O)c1ccc(N2C(=O)CC(N3CCC(Cc4ccccc4)CC3)C2=O)cc1` (stereo not drawn) [CBK273484], for which the viability at 28.5 h, 10 µM was 93.4%.

In the case of `Cc1ccc(CNC(=O)CSc2nnc(-c3ccncc3)n2-c2ccccc2)cc1` [CBK266654], the viability at 28.5 h, 10 µM came out at 102%.

As to `Cc1ccn(-c2ccc(N3CCC(OC4CCOCC4)CC3)nn2)n1` [CBK306296], the viability at 28.5 h, 10 µM came to 87%.

As for `C=CCn1c(SCC(=O)N2c3ccccc3C(C)(c3ccccc3)CC2(C)C)nnc1-c1ccncc1` (stereo not drawn) [CBK059171], the viability at 28.5 h, 10 µM turned out to be 83.3%.

Take `CCNC(=O)c1cncc(-c2[nH]nnc2-c2ccccc2)c1` [CBK160354]: the viability at 28.5 h, 10 µM is 96.9%.

Turning to `COc1ccc(C)cc1NC(=O)CN(c1ccc(F)cc1)S(=O)(=O)c1ccc(C)cc1` [CBK264122], the viability at 28.5 h, 10 µM came to 101%.

Turning to `Cc1ccc(S(=O)(=O)N=C2NCN(CC(=O)O)CN2)cc1` [CBK261983N], the viability at 28.5 h, 10 µM stood at 93.6%.

Take `COCC1=C(C(=O)OC)[C@H](c2ccc(F)c(F)c2)N(C(=O)NCCCN2CCC(c3cccc(NC(C)=O)c3)CC2)C(=O)N1` [CBK051451C]: the viability at 28.5 h, 10 µM was found to be 93.5%.

As for `Cc1cccc(NC(=O)C(Cc2ccccc2)C(=O)Nc2cccc(C)c2)c1` [CBK266899], the viability at 28.5 h, 10 µM was 91.9%.

In the case of `Cc1c(C(=O)N2CCNC(=O)C2(C)C)nnn1Cc1ccc(F)cc1F` [CBK305461], the viability at 28.5 h, 10 µM worked out at 80.2%.

`Cc1cc(C)c(NC(=O)CSCC(=O)Nc2ccc3ccccc3c2)c(C)c1` [CBK264856]: the viability at 28.5 h, 10 µM was determined as 100%.

As for `CN(CCN1CCCCC1)C(=O)CCc1cn(C)c2ccccc12` [CBK281906], the viability at 28.5 h, 10 µM worked out at 94.3%.

For the compound `C=CCc1c(O)nc(SCC(=O)N2CCOCC2)[nH]c1=O` [CBK073301], the viability at 28.5 h, 10 µM amounted to 91.8%.

For the compound `Nc1ncc(-c2ccco2)nc1NC1CCOCC1` [CBK063806], the viability at 28.5 h, 10 µM is 102%.

Take `CC(C)(C)OC(=O)N1CCN(c2nccnc2OCCO)CC1` [CBK001869]: the viability at 28.5 h, 10 µM was 119%.

On to `Cc1ccc2c(c1)N(CCO)C(C)(C)CC2C` (stereo not drawn) [CBK006567], for which the viability at 28.5 h, 10 µM was 92.1%.

For the compound `O=C(NCCOc1ccccc1)c1nn(-c2ncccn2)c2ccccc12` [CBK048494], the viability at 28.5 h, 10 µM was 81%.

With `Cc1nc(C)n(CCC(=O)NC(C)c2cccs2)n1` (stereo not drawn) [CBK282224], the viability at 28.5 h, 10 µM is 105%.

`Cc1ccc(-c2cc(CC3(C(=O)NC4CC4)CCOCC3)on2)cc1` [CBK284946]: the viability at 28.5 h, 10 µM came to 99.7%.

Turning to `COc1cc(C(=O)N2CCC3(CC2)CC(=O)c2cc(-c4ccc(N(C)C)cc4)ccc2O3)cc(OC)c1C` [CBK170663], the viability at 28.5 h, 10 µM turned out to be 108%.

For `CN1CCN(C(=O)c2ccc(-c3ccc4c(c3)OCO4)nc2NCc2cccnc2)CC1` [CBK076110], the viability at 28.5 h, 10 µM turned out to be 90.7%.

On to `O=C(NC1Cc2ccccc2C1)c1ccc2ncccc2c1` [CBK200354], for which the viability at 28.5 h, 10 µM came to 96.2%.

As to `Cc1ccc(C(=O)NC(=S)Nc2cccc(NC(=O)c3ccccc3C)c2)cc1` [CBK264049], the viability at 28.5 h, 10 µM was 95.1%.

On to `Cc1ccc(C(F)(F)F)cc1NS(=O)(=O)c1cc(OC2CCNCC2)c2occc2c1` [CBK082763C], for which the viability at 28.5 h, 10 µM came to 90.1%.

Take `COCCN(Cc1cc2ccc(C)cc2nc1O)S(=O)(=O)c1ccccc1` [CBK269216]: the viability at 28.5 h, 10 µM came to 99.6%.

As for `CCc1nnc(N/N=C/c2cc(Cl)c(OCc3ccccc3F)c(OC)c2)n1N` [CBK278282C], the viability at 28.5 h, 10 µM turned out to be 85.4%.

For the compound `c1ccc(Oc2ccccc2-c2cc(N3CCC(N4CCCCC4)CC3)ncn2)cc1` [CBK037728], the viability at 28.5 h, 10 µM came to 88.7%.

Take `O=C(O)CCc1ccc(-c2cc(N3CCN(CC(=O)N4CCCC4)CC3)ncn2)cc1` [CBK091079]: the viability at 28.5 h, 10 µM worked out at 104%.

Turning to `O=C(Nc1ccc(Oc2ccccc2)cc1)c1cnc2n(c1=O)CCS2` [CBK287377], the viability at 28.5 h, 10 µM came to 95.1%.

In the case of `O=C(O)C(=O)c1cn(Cc2ccccc2Cl)c2ccccc12` [CBK287035], the viability at 28.5 h, 10 µM is 88.8%.

As to `O=C(O)COc1ccc(Br)cn1` [CBK026021], the viability at 28.5 h, 10 µM amounted to 104%.

As to `C=CCn1c(C)c(CN2CCc3nc(C)[nH]c(=O)c3C2)c2ccccc21` [CBK282375], the viability at 28.5 h, 10 µM is 97.3%.

`Cc1cn(C(C)(C)C(=O)N2CCOCC2)nc1-c1ccccc1Cl` [CBK005206]: the viability at 28.5 h, 10 µM came out at 85.9%.

With `CCOC(=O)c1ccc(Nc2nnc3nc(C)cc(C)n23)cc1` [CBK267600], the viability at 28.5 h, 10 µM is 93.1%.

Consider `CCOC(=O)NC(=O)CSc1nnc(C2COc3ccccc3O2)n1-c1ccccc1` (stereo not drawn) [CBK297884], for which the viability at 28.5 h, 10 µM came to 88.9%.

Consider `CN1C[C@@H](NC(=O)c2cccnc2)C[C@H]1c1nc(-c2cccnc2)no1` [CBK288857], for which the viability at 28.5 h, 10 µM was determined as 86.7%.

As to `Nc1ccccc1Sc1cc(C(F)(F)F)ccn1` [CBK093761], the viability at 28.5 h, 10 µM worked out at 91.4%.

For `O=C(c1ccc(F)cc1)c1ccc(CSc2nnc3sc4ccccc4n23)cc1` [CBK265553], the viability at 28.5 h, 10 µM stood at 85.9%.

In the case of `Cc1nn(C)cc1CNC(=O)c1cc2ncc(Br)cn2n1` [CBK304336], the viability at 28.5 h, 10 µM was found to be 102%.

Staying with this data set, now noted: human, hela cells, % viability, bulk resorufin, single well.
As for `c1cc(-c2ccc3c(c2)COC2(CCNCC2)O3)c2cccnc2c1` [CBK060995], the viability at 28.5 h, 10 µM amounted to 104%.
